The values below come from paper PMC9298186, “Thiamine analogues as inhibitors of pyruvate dehydrogenase and discovery of a thiamine analogue with non-thiamine related antiplasmodial activity” (RSC Medicinal Chemistry, 2022).

Data set [1] concerns P. falciparum 3D7 (chloroquine-sensitive) strain. In words: In vitro antiplasmodial activity assay (SYBR-Safe; malstat for 15). It counts as cell-based, Plasmodium falciparum. To be noted: for Effect of changing folic acid concentration on parasite sensitivity: […] versus 220 μM folic acid in medium; for IC50: Plasmodium falciparum.
The test system of a further data set is P. falciparum. Further details: method as in earlier work. To be noted: ChEMBL; read-out: IC50 against P. falciparum; cited from earlier work.
The target in data set [2] is T1, porcine PDHc E1 (Sus scrofa, UniProt F1SGH5+P29804).
T1 sequence (P29804 31-390): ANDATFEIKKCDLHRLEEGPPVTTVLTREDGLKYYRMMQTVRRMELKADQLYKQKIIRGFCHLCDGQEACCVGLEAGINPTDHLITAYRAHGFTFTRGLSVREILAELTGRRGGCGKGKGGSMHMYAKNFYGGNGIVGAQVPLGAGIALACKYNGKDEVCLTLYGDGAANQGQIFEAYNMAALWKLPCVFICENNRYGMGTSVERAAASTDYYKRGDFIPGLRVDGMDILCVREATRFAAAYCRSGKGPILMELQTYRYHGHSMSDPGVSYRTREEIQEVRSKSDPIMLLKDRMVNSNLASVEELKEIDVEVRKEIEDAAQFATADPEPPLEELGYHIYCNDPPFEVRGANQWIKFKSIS
T1 sequence (F1SGH5 32-360): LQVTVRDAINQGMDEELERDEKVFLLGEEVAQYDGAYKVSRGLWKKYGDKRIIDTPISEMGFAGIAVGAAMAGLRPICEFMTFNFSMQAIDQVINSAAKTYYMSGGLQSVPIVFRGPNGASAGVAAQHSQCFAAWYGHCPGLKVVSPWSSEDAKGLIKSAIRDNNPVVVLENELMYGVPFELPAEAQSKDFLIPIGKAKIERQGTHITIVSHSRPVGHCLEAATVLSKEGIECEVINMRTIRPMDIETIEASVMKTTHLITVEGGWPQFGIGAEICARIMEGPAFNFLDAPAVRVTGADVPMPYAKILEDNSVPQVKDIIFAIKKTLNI
In words: Porcine PDHc-E1 inhibition, DCPIP reduction assay. The format is biochemical. To be noted: for IC50: [TPP] = 10 μM, mean ± SEM, read-out: IC50 PDH E1; for Ki: read-out: Ki PDH E1.

Data set [3] relates to human foreskin fibroblast (HFF) cells. The format is cell-based. To be noted: for Selectivity index: HFF cytotoxicity versus antiplasmodial IC50; for Cytotoxicity: human, 96 h. On the procedure: Cytotoxicity evaluation of selected compounds
Cytotoxicity testing of selected compounds was conducted using HFF cells (human foreskin fibroblasts) as described by Howieson et al. with some modifications.10 Briefly, the HFF cells were seeded in 96- […]
Cycloheximide (10 µM; a protein synthesis inhibitor) was used as a control to indicate complete inhibition of HFF cell proliferation. Plates were […]
A sample of the supernatant
(150 µL) was then carefully aspirated from each well and discarded. The plates were then stored at - 80 °C. SYBR-Safe assay was used to measure cell proliferation. Briefly, the plates were thawed, SYBR-Safe lysis solution (150 µL) was added to each well and mixed via pipetting to ensure the HFF cells were detached from the plate and lysed. The plates were then processed as described for the […]
Fig. S7. […] Data are averaged […]
from three independent experiments, each carried out in triplicate. Error bars represent SEM and, where not visible, are smaller than the symbols. […]
10Howieson, V.M.; Tran, E.; Hoegl, A.; Fam, H.L.; Fu, J.; Sivonen, K.; Li, X.X.; Auclair, K.; Saliba, K.J. Triazole substitution of a labile amide bond […]

The test system of data set [4] is P. falciparum 3D7 parasites expressing PfTPK-GFP. In words: Antiplasmodial activity against parasites overexpressing PfTPK-GFP. It counts as cell-based, Plasmodium falciparum. To be noted: versus mock and wild-type parasites; presence or absence of thiamine (2.97 μM).
Data set [5] addresses T1, porcine PDHc E1. In words: Porcine PDHc-E1 inhibition, DCPIP reduction assay. The format is biochemical. To be noted: for inhibition at 50 µM: read-out: Inhibition (%) of PDH E1; for inhibition at 100 µM: read-out: Inhibition (%) of PDH E1 at [TPP] = 100 μM.
Data set [6] deals with Zymomonas mobilis pyruvate decarboxylase (zmPDC). The arrangement: method as in PMID 19082157. To be noted: cited from earlier work.
The target in data set [7] is pig heart pyruvate dehydrogenase. The arrangement: method as in PMID 183746. To be noted: read-out: KD for TPP in pig heart pyruvate dehydrogenase; cited from earlier work.
[8] abbreviates: 3D7, medium with 2.97 μM thiamine, ± SEM, read-out: Antiplasmodial IC50, 2.97 μM thiamine.
[9] abbreviates: 3D7, medium with 297 μM thiamine, ± SEM, read-out: Antiplasmodial IC50, 297 μM thiamine.
Where [10] appears, read: 3D7, thiamine-free medium, ± SEM, three independent experiments, read-out: Antiplasmodial IC50, thiamine free.
The mark [11] stands for this setting: 3D7, read-out: Antiplasmodial IC50, 2.97 μM thiamine.
Setting [12] is: 3D7, read-out: Antiplasmodial IC50, 297 μM thiamine.
Setting [13] is: 3D7, read-out: Antiplasmodial IC50, thiamine free.

Where two headings read alike, the source gives them in different places.

Consider `COc1ncnc(NS(=O)(=O)c2ccc(N)cc2)c1OC` [sulfadoxine, reference compound], for which the “Effect of changing folic acid concentration on parasite sensitivity” value in data set [1] is recorded as “diminished”.

On to `C=CCc1cnc(C)nc1NCc1ccccc1` [Compound 16], for which, in the data set with P. falciparum, the IC50 is 18.5 µM.

Turning to `Cc1ncc(Cn2cc(CCO)nn2)c(NCc2ccc(Br)cc2)n1` [Compound 15], on porcine PDHc E1 [2], the “Inhibitory activity against porcine PDHc E1” value was “none”. The IC50 in data set [1] (3D7, read-out: Antiplasmodial IC50 (text, thiamine concentration not specified)) was roughly 2 µM; in data set [1] (setting [8]), 2.3 ± 0.1 µM; in data set [1] (setting [9]), 2.7 ± 0.01 µM; in [1] (setting [10]) it was 2.2 ± 0.2 µM. Moreover, the “Effect of changing folic acid concentration on parasite sensitivity” value in [1] was “no difference”. For the same compound, the Selectivity index in data set [3] is 45. Further, the Cytotoxicity in data set [3] was found to be 98 ± 7 µM. For the same compound, the “Effect of PfTPK overexpression on parasite sensitivity” value (from here on “Effect of PfTPK overexpression”) in data set [4] is reported as “no effect”. On porcine PDHc E1 [5], the inhibition at 50 µM amounted to 0%.

`Cc1ncc(Cn2cc(CCOP(=O)(O)OP(=O)(O)O)nn2)c(N)n1` [Compound 7]: the “Binding to zmPDC, times tighter than TPP” value in data set [6] is listed as “about 10 000 times”.

For the compound `Cc1ncc(Cn2cc(CCOC(=O)c3ccc(Cl)cc3)nn2)c(N)n1` [Compound 12b], the IC50 amounted to 125 ± 22 µM in data set [1] (setting [11]), 122 ± 6 µM in data set [1] (setting [12]) and 107 ± 16 µM in data set [1] (setting [13]). Besides, the inhibition at 50 µM at porcine PDHc E1 [5] came out at 81 ± 2%. Also, the inhibition at 100 µM at porcine PDHc E1 [5] was 56 ± 3%.

In the case of `Cc1ncc(Cn2cc(CCOC(=O)c3cccc(Cl)c3)nn2)c(N)n1` [Compound 12c], the IC50 stood at 62 ± 17 µM in data set [1] (setting [8]), 79 ± 5 µM in [1] (setting [9]) and 63 ± 15 µM in data set [1] (setting [10]). The compound also gave a Selectivity index in data set [3] greater than 3.2. In [3], this compound registered a Cytotoxicity greater than 200 µM. In addition, the “Effect of PfTPK overexpression” value in data set [4] was “no effect”. Also, at porcine PDHc E1 [5], the inhibition at 50 µM worked out at 72 ± 3%. Further, the inhibition at 100 µM on porcine PDHc E1 [5] worked out at 48 ± 3%.

Regarding `Cc1ncc(Cn2cc(CCO)nn2)c(N)n1` [Compound 6, reference compound], at porcine PDHc E1 [5], the inhibition at 50 µM was 60 ± 7% and the inhibition at 100 µM turned out to be 35 ± 6%. For the same compound, in [6], the “Binding to zmPDC, times weaker than TPP” value is listed as “about 1000 times”.

On to `Cc1ncc(Cn2cc(CCOC(=O)c3ccccc3Cl)nn2)c(N)n1` [Compound 12d], for which the melting point was in the range of 184 to 185 °C. For the same compound, in data set [1] (setting [8]), the IC50 stood at 347 ± 20 µM. The IC50 in data set [1] (setting [9]) stood at 343 ± 33 µM. The IC50 in [1] (setting [10]) was found to be 339 ± 31 µM. Also, on porcine PDHc E1 [5], the inhibition at 50 µM is 61 ± 3% and the inhibition at 100 µM turned out to be 38 ± 3%.

As for `Cc1ncc(Cn2cc(CCOC(=O)c3ccc([N+](=O)[O-])cc3)nn2)c(N)n1` [Compound 12f], the IC50 in data set [1] (setting [8]), in data set [1] (setting [9]) and in [1] (setting [10]) was greater than 25 µM each time. Moreover, the inhibition at 50 µM at porcine PDHc E1 [5] came to 55 ± 5%. Moreover, the inhibition at 100 µM at porcine PDHc E1 [5] was found to be 40 ± 8%.

As to `Cc1ncc(Cn2cc(CCOC(=O)c3ccc(Br)cc3)nn2)c(N)n1` [Compound 12e], the figures for the IC50 in data set [1] (setting [8]), in [1] (setting [9]) and in [1] (setting [10]) were 85 ± 4 µM, 82 ± 8 µM and 75 ± 6 µM, respectively. The inhibition at 50 µM on porcine PDHc E1 [5] was 73 ± 2%. Besides, at porcine PDHc E1 [5], the inhibition at 100 µM is 46 ± 5%.

`Cc1ncc(Cn2cc(CCOc3ccc([N+](=O)[O-])cc3)nn2)c(N)n1` [Compound 13a]: the results for the IC50 in data set [1] (setting [8]), in [1] (setting [9]) and in [1] (setting [10]) were greater than 200 µM, greater than 200 µM and 168 ± 26 µM, respectively. In addition, at porcine PDHc E1 [5], the inhibition at 50 µM was found to be 75 ± 3%. In addition, the inhibition at 100 µM at porcine PDHc E1 [5] is 53 ± 4%.

For the compound `Cc1ncc(Cn2cc(CCOC(=O)c3ccccc3)nn2)c(N)n1` [Compound 12a], the IC50 is 20 ± 3 µM on porcine PDHc E1 [2], 136 ± 18 µM in data set [1] (setting [11]), greater than 200 µM in data set [1] (setting [12]) and 128 ± 13 µM in data set [1] (setting [13]). Moreover, the Ki on porcine PDHc E1 [2] turned out to be 0.1 ± 0.015 µM. For the same compound, the Cytotoxicity in data set [3] is greater than 200 µM. The “Effect of PfTPK overexpression” value in data set [4] was “no effect”. On porcine PDHc E1 [5], the inhibition at 50 µM turned out to be 72 ± 3%. The inhibition at 100 µM on porcine PDHc E1 [5] is 44 ± 4%.

Consider `Cc1ncc(C[n+]2csc(CCO[P@](=O)(O)OP(=O)(O)O)c2C)c(N)n1` [TPP, thiamine pyrophosphate], for which the equilibrium dissociation constant (Kd) in [6] (read-out: KD of TPP, zmPDC) was roughly 0.35 µM; in [7], 0.05 ± 0.01 µM.

`Cc1ncc(Cn2cc(CCOC(=O)c3cccc([N+](=O)[O-])c3)nn2)c(N)n1` [Compound 12g]: the melting point lay within 188 to 189 °C. Also, at porcine PDHc E1 [2], the IC50 was determined as 36 ± 4 µM and the Ki was 0.182 ± 0.02 µM. In addition, the IC50 in [1] (setting [11]) was 139 ± 9 µM. Moreover, the IC50 in data set [1] (setting [12]) was 143 ± 10 µM. For the same compound, the IC50 in data set [1] (setting [13]) is 135 ± 15 µM. In addition, at porcine PDHc E1 [5], the inhibition at 50 µM stood at 56 ± 5% and the inhibition at 100 µM is 38 ± 5%.

For the compound `Cc1ncc(C[n+]2csc(CCO)c2C)c(O)n1` [oxythiamine, reference compound], the “Effect of PfTPK overexpression” value in data set [4] is reported as “increased the sensitivity”.
